Data as given in patent US10206907B2, “Compounds useful for the treatment of degenerative and inflammatory diseases” (GALAPAGOS NV, priority 2008, dated 2019).

Tests used:
[1] = test system: JAK-STAT signalling in HeLa cells; experiment: JAK-STAT signalling assay (OSM-triggered pSTAT1(2)-luciferase reporter in HeLa cells); assay type: cell-based; details: Homo sapiens; HeLa cells, OSM-triggered pSTAT1(2)-luciferase reporter; read-out: STAT signalling EC50
Summary of the method: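 Read-out is oncostatin M–driven pSTAT1(2)-luciferase activity, corrected by co-transfected LacZ β-galactosidase, in transiently transfected HeLa cells cultured overnight at 37 °C, 10% CO2. Inhibition percentages against positive and negative controls were plotted across doses to derive EC50.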

[2] = molecular target: Recombinant human JAK1 catalytic domain (Homo sapiens (Human), UniProt P23458); experiment: JAK1 inhibition assay; assay type: biochemical; details: semi-quantitative score
Chain of Recombinant human JAK1 catalytic domain (P23458 850-1154): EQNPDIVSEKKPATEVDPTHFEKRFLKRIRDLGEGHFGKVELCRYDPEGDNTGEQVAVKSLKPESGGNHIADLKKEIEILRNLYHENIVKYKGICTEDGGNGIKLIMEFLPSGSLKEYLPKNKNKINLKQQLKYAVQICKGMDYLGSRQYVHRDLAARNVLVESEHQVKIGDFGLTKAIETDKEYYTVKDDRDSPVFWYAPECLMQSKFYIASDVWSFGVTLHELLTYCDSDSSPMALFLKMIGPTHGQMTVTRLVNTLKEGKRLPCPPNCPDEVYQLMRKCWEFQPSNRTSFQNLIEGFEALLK
Summary of the method: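 IC50 values come from dose-response series, with each point expressed as percent inhibition of cpm. Vehicle sets full activity and 10 μM staurosporine sets background. Incorporated radioactivity counted by scintillation after washing with 75 mM phosphoric acid.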

TNF-alpha release = experiment: Septic shock model (LPS-induced TNF release); assay type: in vivo, mouse; details: 30 mg/kg po, BALB/cJ mice, LPS ip; statistically significant
Method: Injection of lipopolysaccharide (LPS) induces a rapid release of soluble tumour necrosis factor (TNF-alpha) into the periphery. This model is used to analyse prospective blockers of TNF release in vivo.
Six BALB/cJ female mice (20 g) per group were treated at the intended dosing once, po. Thirty minutes later, LPS (15 μg/kg; E. Coli serotype 0111:B4) was injected ip. Ninety minutes later, mice were euthanized and blood was collected. Circulating TNF alpha levels were determined using commercially available ELISA kits. Dexamethasone (5 μg/kg) was used as a reference anti-inflammatory compound. Selected compounds are tested at one or multiple doses, e.g. 3 and/or 10 and/or 30 mg/kg, po.

[3] = Caco2 permeability (bi-directional); assay type: in vitro ADME, human; details: human, pH 7.4; for Papp A→B at 1 h, 10 µM: Caco-2, apical to basolateral, read-out: Papp (A2B); for efflux ratio at 1 h, 10 µM: Caco-2, ratio of PappB>A/PappA>B
Summary of the method: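 Compound concentrations in both chambers were measured by LC-MS/MS after 1 h incubation at 37 °C on an orbital shaker. Efflux ratio is PappB>A over PappA>B. Lucifer Yellow (50 μM in donor) confirmed layer integrity, with permeability of ≤100 nm/s required.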

[4] = molecular target: Recombinant human JAK2 catalytic domain (Homo sapiens (Human), UniProt O60674); experiment: JAK2 inhibition assay; assay type: biochemical; details: semi-quantitative score
Chain of Recombinant human JAK2 catalytic domain (O60674 808-1132): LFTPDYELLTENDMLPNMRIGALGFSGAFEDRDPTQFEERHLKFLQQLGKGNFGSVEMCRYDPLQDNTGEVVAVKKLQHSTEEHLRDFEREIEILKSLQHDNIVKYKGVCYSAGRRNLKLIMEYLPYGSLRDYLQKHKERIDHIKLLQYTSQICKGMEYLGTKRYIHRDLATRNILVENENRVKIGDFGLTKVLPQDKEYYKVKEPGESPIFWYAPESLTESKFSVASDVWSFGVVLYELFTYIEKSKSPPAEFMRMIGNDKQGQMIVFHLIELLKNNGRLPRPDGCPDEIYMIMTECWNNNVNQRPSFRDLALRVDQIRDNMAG
Summary of the method: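 Activity was taken as vehicle cpm minus cpm with 10 μM staurosporine, and inhibition was expressed on that scale. Incubation was 90 min at 30 °C, followed by acid quench, phosphoric acid washes and Microscint counting. Compounds were tested as dose series to obtain IC50.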

MMP13 in SW1353 cells = experiment: OSM/IL-1β signaling assay (MMP13 levels in SW1353 cells); assay type: cell-based; details: Homo sapiens; SW1353 cells, OSM and IL-1β triggered, MMP13 levels 48 hours after triggering; read-out: MMP13 EC50;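 also: secreted MMP13 captured by antibody, activated with APMA and its activity read by fluorescence, inhibition scaled between vehicle-treated triggered wells (0%) and untriggered wells (100%)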
Method: The cells were seeded in 96 well plates at 15,000 cells/well in a volume of 120 μL DMEM (Invitrogen) containing 10% (v/v) FBS and 1% penicillin/streptomycin (InVitrogen) incubated at 37° C. […] MMP13 activity was measured using an antibody capture activity assay. […] Next the wells were washed twice with PBS+0.05% Tween followed by MMP13 activation by addition of 35 μL of a 1.5 mM 4-Aminophenylmercuric acetate (APMA) (Sigma, A9563) solution and incubation at 37° C. for 1 hour. […] Percentage inhibition=((fluorescence determined in the presence of vehicle−fluorescence determined for sample with test compound present) divided by (fluorescence determined in the presence of vehicle−fluorescence determined for sample without trigger))*100%.

[5] = Microsomal stability, human liver microsomes; assay type: in vitro ADME; details: percentage of compound remaining after 60 minutes, 3 μM compound
Summary of the method: (§1)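 Percent parent remaining after 60 min was determined by LCMS against a time-zero sample quenched before microsome addition. Incubations ran at 37°C with liver microsomes and a G6PDH-based NADPH-regenerating cofactor mix. Quench was MeOH or ACN (1:1).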

[6] = molecular target: Recombinant human JAK3 catalytic domain (Homo sapiens (Human), UniProt P52333); experiment: JAK3 inhibition assay; assay type: biochemical; details: semi-quantitative score
Chain of Recombinant human JAK3 catalytic domain (P52333 781-1124): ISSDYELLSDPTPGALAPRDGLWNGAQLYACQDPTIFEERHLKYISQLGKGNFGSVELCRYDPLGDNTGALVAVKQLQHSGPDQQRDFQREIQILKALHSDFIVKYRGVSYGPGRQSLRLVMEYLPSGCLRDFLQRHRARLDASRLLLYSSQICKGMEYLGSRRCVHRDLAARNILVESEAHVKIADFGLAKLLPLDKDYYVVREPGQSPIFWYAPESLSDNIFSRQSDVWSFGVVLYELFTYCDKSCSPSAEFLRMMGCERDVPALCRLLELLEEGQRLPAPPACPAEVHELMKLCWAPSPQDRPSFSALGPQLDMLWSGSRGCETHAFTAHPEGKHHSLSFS

[7] = Microsomal stability, rat liver microsomes; assay type: in vitro ADME; details: percentage of compound remaining after 60 minutes, 3 μM compound
Summary of the method: as §1

[8] = molecular target: Recombinant human TYK2 catalytic domain (Homo sapiens (Human), UniProt P29597); experiment: TYK2 inhibition assay; assay type: biochemical; details: semi-quantitative score
Chain of Recombinant human TYK2 catalytic domain (P29597 871-1187): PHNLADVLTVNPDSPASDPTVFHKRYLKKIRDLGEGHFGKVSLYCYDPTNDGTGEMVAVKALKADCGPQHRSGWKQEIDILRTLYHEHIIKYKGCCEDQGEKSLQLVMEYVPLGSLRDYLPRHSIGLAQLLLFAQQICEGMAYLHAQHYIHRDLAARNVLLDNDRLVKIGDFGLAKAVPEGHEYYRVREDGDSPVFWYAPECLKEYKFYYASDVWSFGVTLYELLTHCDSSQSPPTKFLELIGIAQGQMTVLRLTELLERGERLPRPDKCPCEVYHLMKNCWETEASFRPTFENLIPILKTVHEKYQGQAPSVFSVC
Summary of the method: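 Recombinant human TYK2 catalytic domain; radiometric kinase reaction run 90 min at 30° C, stopped with phosphoric acid, washed and counted by scintillation.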

Row | SMILES | EC50 [1] [nM] | IC50 [2] [nM] | Papp A→B at 1 h, 10 µM [3] [×10⁻⁶ cm/s] | efflux ratio at 1 h, 10 µM [3] | IC50 [4] [nM] | EC50 (MMP13 in SW1353 cells) [nM] | Microsomal Stability Human (%) [5] | IC50 [6] [nM] | Microsomal Stability Rat (%) [7] | IC50 [8] [nM] | reduction in the TNF release (TNF-alpha release) [%]
1 | O=C(Nc1nc2cccc(-c3ccc(OCc4ccccc4)cc3)n2n1)C1CC1 [Compound 12, N-(5-(4-(benzyloxy)phenyl)-[1,2,4]triazolo[1,5-a]pyridin-2-yl)cyclopropanecarboxamide] | 101 to 500 | < 100 | 23.4 | 0.82 | < 100 | > 1000 | *** (*** 51-75) | < 100 | **** (**** 76-100) |  | > 50
2 | Cc1cc(COc2ccc(-c3cccc4nc(NC(=O)C5CC5)nn34)cc2)no1 [Compound 52, N-(5-(4-((5-methylisoxazol-3-yl)methoxy)phenyl)-[1,2,4]triazolo[1,5-a]pyridin-2-yl)cyclopropanecarboxamide] | 501 to 1000 | < 100 | 31.8 | 1.02 | < 100 | > 1000 | * (* 0-25) | 501 to 1000 | * (* 0-25) | 501 to 1000 | > 50
3 | O=C(NCCOc1ccccc1)c1ccc(-c2cccc3nc(NC(=O)C4CC4)nn23)cc1 [Compound 60, 4-(2-(cyclopropanecarboxamido)-[1,2,4]triazolo[1,5-a]pyridin-5-yl)-N-(2-phenoxyethyl)benzamide] | 101 to 500 | < 100 | 16.9 | 2.55 | < 100 | 501 to 1000 | ** (** 26-50) | 101 to 500 | * (* 0-25) | 501 to 1000 | > 50

Further lines, with some results ahead:

Row | EC50 [1] [nM] | IC50 [2] [nM] | Papp A→B at 1 h, 10 µM [3] [×10⁻⁶ cm/s] | efflux ratio at 1 h, 10 µM [3] | IC50 [4] [nM] | EC50 (MMP13 in SW1353 cells) [nM] | Microsomal Stability Human (%) [5] | IC50 [6] [nM] | Microsomal Stability Rat (%) [7] | IC50 [8] [nM] | SMILES | reduction in the TNF release (TNF-alpha release) [%]
4 | > 1000 | < 100 | 23.3 | 1.14 | 101 to 500 | > 1000 | * (* 0-25) | > 1000 | **** (**** 76-100) |  | O=C(Nc1nc2cccc(-c3ccc(C(=O)N4CCC(C(=O)c5ccccc5)CC4)cc3)n2n1)C1CC1 [Compound 74, N-(5-(4-(4-benzoylpiperidine-1-carbonyl)phenyl)-[1,2,4]triazolo[1,5-a]pyridin-2-yl)cyclopropanecarboxamide] | > 50
5 | > 1000 | < 100 |  |  |  | > 1000 | *** (*** 51-75) | < 100 | **** (**** 76-100) |  | O=C(Nc1nc2cccc(-c3ccc(OCc4ccc(-n5cccn5)cc4)cc3)n2n1)C1CC1 [Compound 125] | > 50
6 | 501 to 1000 | < 100 | 25.9 | 1.6 | < 100 | 501 to 1000 | *** (*** 51-75) |  | *** (*** 51-75) |  | O=C(Nc1nc2cccc(-c3ccc(CNc4ncccn4)cc3)n2n1)C1CC1 [Compound 229, Cyclopropanecarboxylic acid {5-[4-(pyrimidin-2-ylaminomethyl)-phenyl]-[1,2,4]triazolo[1,5-a]pyridin-2-yl}-amide] | > 50
